Experimental findings from patent US20240141374A1, “ON DEMAND EXPRESSION OF EXOGENOUS FACTORS IN LYMPHOCYTES” (priority 0001, published 2024) are described below.

In data set [1] the test system is HIV NL43-GFP. In words: HIV NL43-GFP infection of CD8-depleted, CD3/CD28-stimulated PBMC transduced with lentiviral vector encoding 3BNC117 (Example 3). Type of data set: cell-based. Particulars: day six, FIG. 6. An excerpt: Method: On day 0, PBMC were depleted of CD8+ T cells and then stimulated with TransAct (CD3/CD28 beads) (MiltenyiBiotec). On day 1, the PBMC were transduced with a lentiviral vectors expressing the broadly neutralizing antibody (bNAb) against HIV (SEQ ID NO:4; AGT112). The components of the vectors are described in Table 2. The AGT112 vector (SEQ ID NO: 4) contains a CMV promoter (SEQ ID NO: 13) that drives expression of a 3BNC117 antibody sequence that contains an IL-2 secretory sequence (SEQ ID NO: 74 (3BNC117 heavy variable chain (with IL-2 secretory sequence)) and SEQ ID NO: 75 (3BNC117 light variable chain (with IL-2 secretory sequence)). The IL-2 secretory sequence is SEQ ID NO: 11.
On day two (2), the PBMC were then infected with HIV NL43-GFP. On day three, cells were washed three times. On day six, HIV-infected GFP positive cells were measured. This protocol is shown in FIG. 5 but here LV-3BNC117 was substituted for LV-VRC01.

Data set [2] has as its system HIV NL43-GFP. In words: HIV NL43-GFP infection of PBMC transduced with sCD4 lentiviral vectors (Example 4). To be noted: columns NL43+sCD4 / NL43-sCD4-Ig / NL43-Saquinavir. Type of data set: cell-based. From the text:
Method: On day 0, PBMC were depleted of CD8+ T cell and then stimulated with TransAct (CD3/CD28 beads) (MiltenyiBiotec). On day 1, PBMC were transduced with lentiviral vectors expressing sCD4 (SEQ ID NO: 8 (AGT116) and SEQ ID NO: 10 (AGT117)).
The components of the vectors are described in Table 2. The AGT116 vector (SEQ ID NO: 8) contains a sCD4 sequence (SEQ ID NO: 7) and an EF-1α promoter (SEQ ID NO: 14) upstream of the sCD4 sequence. The AGT117 vector (SEQ ID NO: 10) contains a sCD4-IgG1 Fc sequence (SEQ ID NO: 9) and an EF-1α promoter (SEQ ID NO: 14) upstream of the sCD4-IgG1 Fc sequence.
On day 2, the PBMC were infected with HIV NL43-GFP. On day 3, the cells were washed three times. Cells were then […]. On day 6, HIV-infected GFP positive cells were measured.

The test system of data set [3] is HIV recombinant strain NL43 that expresses GFP. Put plainly: HIV NL43-GFP infection of primary CD4 T cells transduced with AGT111 at various MOI (Example 7). Type of data set: cell-based. To be noted: 200 nM saquinavir. On the procedure: Method: CD4 T cells were separated by negative selection and stimulated for 1 day with TransAct (CD3/CD28 beads) (Miltenyi Biotec) plus IL-2 (30 U/mL) (Thermo Fisher Scientific) and then transduced with lentivirus vector AGT111 (SEQ ID NO: 2) at various MOI.
One day later, cells were infected with 1 MOI of HIV recombinant strain NL43 that expresses GFP. […] As a control, HIV infected cells were treated with 200 nM saquinavir. At the end of the culture, cells were collected and analyzed by flow cytometry for GFP expression and with an APC anti-CD4 antibody. If the CD4 cell expresses GFP, it was infected by HIV.

Data set [4] has the same test system. Put plainly: HIV NL43-GFP infection of primary CD4 T cells transduced with AGT103 or AGT118 (Example 17). Type of data set: cell-based. An excerpt: Method: CD4 T cells were separated by negative selection and stimulated for 1 day with TransAct (CD3/CD28 beads) (Miltenyi Biotec) plus IL-2 (30 U/mL) (Thermo Fisher Scientific) and then transduced with lentivirus AGT103 (SEQ ID NO: 78) or AGT118 (SEQ ID NO: 80) at a MOI of 5. The AGT103 vector (SEQ ID NO: 78) contains an EF-1α promoter (SEQ ID NO: 14) that drives expression of the miR30-CCR5/miR21-Vif/mir185-Tat microRNA cluster sequence (SEQ ID NO: 65) (miR30-CCR5/miR21-Vif/miR185-Tat microRNA cluster sequence). The miR30-CCR5 sequence is SEQ ID NO: 62. The miR21-Vif sequence is SEQ ID NO: 63. The miR185-Tat sequence is SEQ ID NO: 64. The AGT118 vector (SEQ ID NO: 80) contains an EF-1α promoter (SEQ ID NO: 14) that drives expression of sCD4(D1+D2)-IgG1 Fc (SEQ ID NO: 9) and the miR30-CCR5/miR21-Vif/miR185-Tat microRNA cluster sequence (SEQ ID NO: 65).
One day later, cells were infected with 1 MOI of HIV recombinant strain NL43 that expresses GFP. After 24 hours, CD3/CD28 beads, lentivirus and HIV were removed by washing 3 times with PBS and cultured in RPMI 1640 medium (Thermo Fisher Scientific) containing 10% FBS (Gemini Bio) and 1% Pen-Strep (Thermo Fisher Scientific) with IL-2 (30 U/mL) in a 37° C. incubator at 5% C02 for 7 days with medium supplementation as needed. At the end of the culture, cells were collected and analyzed by flow cytometry. […]

Data set [5] relates to HIV Gag-specific CD4 T cells. Put plainly: Antibody (IgG Fc) expression by HIV Gag-specific CD4 T cells after peptide stimulation (Example 5). Type of data set: cell-based, human. Particulars: for cells positive for IgG Fc: MOI 5. How it is done:
Method: To measure antibody expression by HIV Gag-specific CD4 T cells, HIV positive human peripheral blood mononuclear cells (PBMCs) were separated with Ficoll-Paque PLUS (GE Healthcare, Cat: 17-1440-02). Separated PBMCs (1×10^7) were stimulated with PepMix™ HIV (GAG) Ultra (Cat: PM-HIV-GAG, JPT Peptide Technologies) in 1 mL medium in a 24-well plate for 18 hours. CD8 T, γδ, NK, and B cells were depleted with PE labeled specific antibodies and anti-PE microbeads. The negatively selected cells were cultured at 2×10^6/mL in TexMACS GMP medium (Cat: 170-076-309, Miltenyi Biotec) containing IL7 (170-076-111, Miltenyi Biotec), IL15 (170-076-114, Miltenyi Biotec) and saquinavir (Cat: 4658, NIH AIDS Reagent Program). The lentivirus vector AGT111 (SEQ ID NO: 2) encoding anti-HIV antibody VRC01 or AGT112 (SEQ ID NO: 4) encoding anti-HIV antibody 3BNC117 was added 24 hours later at a multiplicity of infection (MOI) of 5.
Fresh medium containing IL7, IL15, and saquinavir was added every 2-3 days during cell expansion. The starting concentration of IL7 and IL15 was 10 ng/mL. On day 12-16, 2-3×10^6 cells were collected for peptide stimulation. The intracellular expression of IFNγ and IgG Fc was detected with a PE anti-IFNγ antibody and an APC anti-IgG1 Fc antibody (Biolegend).

`CC(C)(C)NC(=O)[C@@H]1C[C@@H]2CCCC[C@@H]2CN1C[C@@H](O)[C@H](Cc1ccccc1)NC(=O)[C@H](CC(N)=O)NC(=O)c1ccc2ccccc2n1` [Saquinavir, saquinavir]: the GFP positive cells is 0.025% in the data set on HIV NL43-GFP [1] (NY025 donor) and 2.43E-3% with HIV NL43-GFP [1] (NY026 donor). The “percent of GFP positive cells” value in the data set on HIV NL43-GFP [2] (FIG. 8A bottom row) came out at 0.017%; in the data set with HIV NL43-GFP [2] (FIG. 8B bottom row), 0.026%. In addition, the “percentage of GFP positive cells” value amounted to 0.19% in data set [3] (day 5), 0.22% in data set [3] (day 7) and 0.24% in data set [3] (day 9).

B1: AGT103: Vector encoding inhibitory RNA sequences targeting CCR5 and HIV Vif/Tat with EF-1α promoter (SEQ ID NO: 78) (nucleic acid)
DNA: CCGGTGCCTAGAGAAGGTGGCGCGGGGTAAACTGGGAAAGTGATGTCGTGTACTGGCTCCGCCTTTTTCCCGAGGGTGGGGGAGAACCGTATATAAGTGCAGTAGTCGCCGTGAACGTTCTTTTTCGCAACGGGTTTGCCGCCAGAACACAGGTAAGTGCCGTGTGTGGTTCCCGCGGGCCTGGCCTCTTTACGGGTTATGGCCCTTGCGTGCCTTGAATTACTTCCACGCCCCTGGCTGCAGTACGTGATTCTTGATCCCGAGCTTCGGGTTGGAAGTGGGTGGGAGAGTTCGAGGCCTTGCGCTTAAGGAGCCCCTTCGCCTCGTGCTTGAGTTGAGGCCTGGCCTGGGCGCTGGGGCCGCCGCGTGCGAATCTGGTGGCACCTTCGCGCCTGTCTCGCTGCTTTCGATAAGTCTCTAGCCATTTAAAATTTTTGATGACCTGCTGCGACGCTTTTTTTCTGGCAAGATAGTCTTGTAAATGCGGGCCAAGATCTGCACACTGGTATTTCGGTTTTTGGGGCCGCGGGCGGCGACGGGGCCCGTGCGTCCCAGCGCACATGTTCGGCGAGGCGGGGCCTGCGAGCGCGGCCACCGAGAATCGGACGGGGGTAGTCTCAAGCTGGCCGGCCTGCTCTGGTGCCTGGCCTCGCGCCGCCGTGTATCGCCCCGCCCTGGGCGGCAAGGCTGGCCCGGTCGGCACCAGTTGCGTGAGCGGAAAGATGGCCGCTTCCCGGCCCTGCTGCAGGGAGCTCAAAATGGAGGACGCGGCGCTCGGGAGAGCGGGCGGGTGAGTCACCCACACAAAGGAAAAGGGCCTTTCCGTCCTCAGCCGTCGCTTCATGTGACTCCACGGAGTACCGGGCGCCGTCCAGGCACCTCGATTAGTTCTCGAGCTTTTGGAGTACGTCGTCTTTAGGTTGGGGGGAGGGGTTTTATGCGATGGAGTTTCCCCACACTGAGTGGGTGGAGACTGAAGTTAGGCCAGCTTGGCACTTGATGTAATTCTCCTTGGAATTTGCCCTTTTTGAGTTTGGATCTTGGTTCATTCTCAAGCCTCAGACAGTGGTTCAAAGTTTTTTTCTTCCATTTCAGGTGTCGTGATGTACAAGGTATATTGCTGTTGACAGTGAGCGACTGTAAACTGAGCTTGCTCTACTGTGAAGCCACAGATGGGTAGAGCAAGCACAGTTTACCGCTGCCTACTGCCTCGGACTTCAAGGGGCTTCCCGGGCATCTCCATGGCTGTACCACCTTGTCGGGGGATGTGTACTTCTGAACTTGTGTTGAATCTCATGGAGTTCAGAAGAACACATCCGCACTGACATTTTGGTATCTTTCATCTGACCAGCTAGCGGGCCTGGCTCGAGCAGGGGGCGAGGGATTCCGCTTCTTCCTGCCATAGCGTGGTCCCCTCCCCTATGGCAGGCAGAAGCGGCACCTTCCCTCCCAATGACCGCGTCTTCGTC
modifications: misc_feature 1..1469 AGT103
In the case of B1, the “cells HIV positive” value in data set [4] (primary CD4 T cells, MOI of 5) was 0.86%. In data set [4] (vs control treated cells), the “decrease in HIV infection” value is listed as 75.6%.

B2: 3BNC117: human IgG1 monoclonal antibody targeting the CD4 binding site on HIV gp160; expressed in cells from vector AGT112 (protein)
chain 1: MYRMQLLSCIALSLALVTQVQLLQSGAAVTKPGASVRVSCEASGYNIRDYFIHWWRQAPGQGLQWVGWINPKTGQPNNPRQFQGRVSLTRHASWDFDTFSFYMDLKALRSDDTAVYFCARQRSDYWDFDVWGSGTQVTVSSASTKGP
chain 2: MYRMQLLSCIALSLALVTDIQMTQSPSSLSASVGDTVTITCQANGYLNWYQQRRGKAPKLLIYDGSKLERGVPSRFSGRRWGQEYNLTINNLQPEDIATYFCQVYEFVVPGTRLDLKRTVAAP
modifications: constant regions lack entries; misc_feature 1..441 3BNC117 Heavy Variable Chain (with IL-2 secretory signal); misc_feature 1..369 3BNC117 Light Variable Chain (with IL-2 secretory signal)
notes: expressed in cells from vector AGT112
Regarding B2, the GFP positive cells stood at 1.79% in the data set on HIV NL43-GFP [1] (NY025 donor) and 0.30% in the data set on HIV NL43-GFP [1] (NY026 donor). In data set [5] (Gag PepMix vs DMSO), the “increase in fluorescence intensity of IgG relative to DMSO treated cells” value is “approximately 10 fold”. The “cells positive for IgG Fc” value in data set [5] (stimulation with Gag PepMix on day 12) amounted to 1.58%; in data set [5] (treated with DMSO (no peptide)), 0.13%.
